The results in this text go back to EP0620210A1, “Compounds with benzamidic structure active in gastro-intestinal pathologies” (priority 1993, dated 1994).

Marks after values point to notes of the source that are not given here.

For one series, the system named is Swiss albino mice. The series is described as follows: Test of the progression of the opaque meal in the mouse (intestinal transit). Type of series: in vivo. Here is the method: The prokinetic action was evaluated in vivo on Swiss albino mice determining the influence of the products on the intestinal transit of an opaque meal, according to the method described by […]. and Barba-Gose J. in J. Amer. Pharm. Ass. 20, 558, 1931 and later by Witkin L.B. et al. in J. Pharmacol. Exp. Ther. […] The method involved the administration of an opaque meal to the mice after a 24 hour fast, through gastric probe, 15 minutes after the administration of the product. After sacrificing the animals 20 minutes after the administration of the opaque meal, the percentage of the length of the intestine travelled by the opaque meal was calculated. […]

The subject of series [1] is acetylcholine activity on the rat ascending colon. The series is described as follows: Influence on the acetylcholine activity on isolated rat ascending colon (cumulative dose-response curves). More on the design: species or system Wistar rat. As to conditions: De Jalon fluid 27°C. The procedure:
Finally the effect on the acetylcholine was evaluated on the ascending colon of a rat, according to the method of Gaddum J. H. and Horton E.W. reported in Br. J. Pharmacol. Chemother. 14, 117, 1959. The effect of the products on the contracturing action of the acetylcholine was studied on the isolated ascending colon of rat, taken from Wistar rat sacrificed after 24 hours fasting, washed with De Jalon fluid at 27°C and perfused with the same oxygenated fluid (95% oxygen and 5% carbon dioxide) at the temperature of 27°C. In this case too the cumulative dose-response curves were recorded in the presence of increasing concentrations of the products being studied.

The test system of series [2] is serotonine activity on the fornix of the rat stomach. The series is described as follows: Influence on the serotonine activity on the fornix of the rat stomach. Set-up: species or system Wistar rat. Here is the method: The effect on the serotonine was evaluated on the fornix of the stomach of a rat according to the method of Vane J.R. in Br. J. Pharmacol. Chemother 12, 344, 1957. The action on the serotonine was evaluated on the fornix of the stomach of rat, also taken from Wistar rat sacrificed after 24 hours fasting, following the technique reported by Vane J.R. in Br. J. Pharmacol. Chemoter. 12, 344, 1957, as previously described.

A further series has as its system rats. The series is described as follows: Irwin's test (behaviour), modified to use rats. Type of series: in vivo. As to conditions: 10 mg/Kg i.p., preliminary studies. The source says: Finally, preliminary studies on the effects as regards behaviour have been performed by means of Irwin's test, according to the method reported by Irwin S. in Gordon Res. Conf. on Medicinal Chem. 1959, 133, 1959, modified in that rats were used instead of mice.

For the next series, the system named is rat. The series is described as follows: Test of gastric dumping in the rat. The format is in vivo. As to conditions: 30' before the administration of the coloured meal. The procedure: Within the gastro-duodenal tract, the prokinetic activity was evaluated by means of the test of gastric dumping in the rat, according to the method reported by Scarpignato C. in J. Pharmacol 14, 261, 1983. […]

For another series, the system named is rabbit jejunum. The series is described as follows: Spontaneous peristaltic activity on isolated rabbit jejunum. As to conditions: Tyrode fluid 37°C. Here is the method:
The action on physiological peristalsis was evaluated on an isolated rabbit jejunum preparation, according to the method reported by Magnus J. in Pfluegers Arch. Gen. Physiol. 102, 123, 1904 and described by Beretta C. in Metodiche […] fisiologia e farmacologia, Tamburini Ed., Milano, 1972. For the evaluation of the physiological peristalsis and the action on the histamine, the rabbit jejunum and the guinea-pig ileum were removed from the animals sacrificed after 24 hours fasting, washed with Tyrode fluid at 37°C and perfused with the same oxygenated fluid (95% oxygen and 5% carbon dioxide) at the temperature of 37°C. The rabbit jejunum was used to evaluate the extent of the spontaneous peristaltic contractions in the presence and in the absence of the derivatives being studied. […]

In another series the test system is Sprague-Dawley rats. The series is described as follows: Study of acute toxicity (LD50). Type of series: in vivo. The note with it: i.v., rats of both sexes, observation period of 14 days. The procedure: The acute toxicity (LD₅₀) of the derivatives described in this invention was evaluated according to the method reported by Lietchfield J.T. and Wilcoxon F. in J. Pharmacol. Exp. Ther. 96, 99, 1949, on Sprague-Dawley rats of both sexes, over an observation period of 14 days from the day of treatment.

The next series has as its system pigeon. The series is described as follows: Test of vomit from cisplatin in the pigeon (antiemetic activity). The format is in vivo. The note with it: one hour before 7.5 mg/kg cisplatin; for Acts of vomit (average/anim.) / Animals that vomit %: observation 3 hours. Here is the method: Finally the antiemetic activity was evaluated in the pigeon after induction of emesis with cisplatin, according to the method of Preziosi P. et al. in Eur. J. Pharmacol. 221, 343, 1992.

Series [3] concerns histamine on guinea-pig ileum. The series is described as follows: Influence on the activity of histamine on isolated guinea-pig ileum (cumulative dose-response curves). The procedure:
The effect on the histamine was evaluated on a preparation of guinea-pig ileum according to the method described by the above-mentioned authors. For the evaluation of the physiological peristalsis and the action on the histamine, the rabbit jejunum and the guinea-pig ileum were removed from the animals sacrificed after 24 hours fasting, washed with Tyrode fluid at 37°C and perfused with the same oxygenated fluid (95% oxygen and 5% carbon dioxide) at the temperature of 37°C. The rabbit jejunum was used to evaluate the extent of the spontaneous peristaltic contractions in the presence and in the absence of the derivatives being studied. On the guinea-pig ileum the cumulative dose-response curves to histamine were recorded in the presence of increasing concentrations of the products being examined.

Take `CCN(CC)CCCNC(=O)c1cc(Cl)ccc1NC.O=C(O)C(=O)O` [Example 8, 5-Chloro-N-[3-(diethylamino)propyl]-2-methylaminobenzamide oxalate]: the “variation in % with respect to the controls” value in the series with Swiss albino mice (17.3 µg/Kg p.o., 15' before the opaque meal, * = p < 0.05) was determined as 0.0%. Further, the “% of intestine (from pylorus to anus) travelled by the opaque meal” value stood at 41.0% with Swiss albino mice (17.3 µg/Kg p.o., 15' before the opaque meal, sacrifice 20 minutes after the meal) and 59.9% with Swiss albino mice (dose five times greater than ED₅₀). Further, the “prokinetic activity compared with the reference drug” value in the series with Swiss albino mice (dose 5 times greater than ED₅₀, reference drug cisapride) is on record as “considerably more active than the reference drug”. In addition, the “Variation % with respect to the controls” value in the series on Swiss albino mice (dose five times greater than ED₅₀, * = p < 0.05) was 47.5* %. For the same compound, the values for the effect entry in series [1], in [2] and in [3] were “non competitive antagonism”, “competitive antagonism” and “mixed antagonism”, respectively. The “variations in behaviour parameters (consciousness, mood, motor activity, excitation of the central nervous system, posture, motor coordination, muscular tone, reflexes, autonomous nervous system)” value in the series on rats is “no significant variations with respect to the controls”. Also, the “Increase % of the gastric dumping with respect to the controls 20' after the coloured meal” value with rat (5.0 µg/kg) was 0.0%; with rat (10.0 µg/kg), 60.9* %; in the series on rat (50.0 µg/kg), 74.8* %; in the series on rat (100.0 µg/kg) it was 8.7%; with rat (200.0 µg/kg) it was 58.7* %. In addition, the “maximum effect % (max. increase of extent of the contractions)” value with rabbit jejunum is reported as “+17.8%”. Besides, in the series on Sprague-Dawley rats, the “LD ₅₀” value was found to be 60 mg/Kg/i.v. The “Latency of 1st act of vomit” value with pigeon (50.0 μg/kg i.m.) and in the series with pigeon (100.0 μg/kg i.m.) was 100 min throughout. Moreover, the “Variation % of the time of latency with respect to the controls” value with pigeon (50.0 μg/kg i.m.) and in the series on pigeon (100.0 μg/kg i.m.) was “+18.3%” in each case. The “Acts of vomit (average/anim.)” value in the series on pigeon (50.0 μg/kg i.m.) is 7.5; in the series with pigeon (100.0 μg/kg i.m.), 7.0. In addition, the “Animals that vomit %” value in the series with pigeon (50.0 μg/kg i.m.) and with pigeon (100.0 μg/kg i.m.) was 100.0% in each case.
